Test results published in patent US20160022694A1, “A Method of Improving the Efficiency of Beef Production from Bovine Animals” (INTERVET INTERNATIONAL B.V., priority 2013, published 2016).
Marks after values point to notes of the source that are not given here.

Legend:
finishing steers [1] = test: Secondary (carcass) variables after Zilmax component or continuous feeding; format: in vivo, cattle; details: for Marbling Score: 400-699 = choice
Text: A multi-center, randomized complete block design was used. Four study sites enrolled 800 to 1000 head of cattle each. Cattle were randomized to 10 blocks of 80 to 100 head based on body weight, then penned in groups of 16 to 20 head per pen. Finishing steers that were visually estimated to be approximately 58 days from finish were used in the studies. Each site enrolled 800 to 1000 head of cattle. Cattle were randomized to 10 blocks of 80 to 100 head and, within block, to treatment group based on body weight. Study pens consisted of 16 to 20 head per pen. A component feeding method was tested in the studies by thoroughly mixing the daily zilpaterol dose in the first feeding of the Type C feed prior to delivery to the animal for Groups 2, 3 and 4. […] The daily component feed amount (i.e., the first feeding each day of the Type C feed) was set at approximately 10 lb of feed dry matter (DM) per head to simulate commercial practice for component feeding. Therefore, all study pens were fed approximately 10 lb of DM per head in the first feeding of the day. Control steers were fed the Type C feed that contained no Zilmax. The component feeding treatment groups were fed the Type C feed that contained 60, 75, or 90 mg/head/day. All cattle in the control and three component feeding treatments were fed the non-medicated Type C complete feed (i.e., without Zilmax®) in a second feeding each day. Steers in the 6.8 g/ton Zilmax® treatment group received the Type C complete feed containing this level of Zilmax® in both feedings each day during the 20-day Zilmax® feeding period. DMI was calculated for the two study periods (start of the acclimation period or Day 0 to the end of the withdrawal period). The following carcass data were collected or calculated: marbling score, USDA quality grade or equivalent, hot carcass weight, ribeye area, backfat thickness (preliminary yield grade and adjusted preliminary yield grade), and USDA yield grade or equivalent. Dressing percent was calculated. Variables continuous in nature were subjected to the analysis described for the primary outcome variables. Outcomes evaluated included: initial body weight, final body weight, weight gain (Day 0 to final date), ADG (acclimation period, initial date to final date), ADG (shrunk, Day 0 to final date and initial date to final date), DMI (acclimation, initial date to final date), as fed intake (Zilmax® period), carcass gain (Day 0 to final date), dressing percent, hot carcass weight, marbling score, fat depth, ribeye area, percent KPH and calculated yield grade. The following carcass data were collected or calculated: marbling score, USDA quality grade or equivalent, hot carcass weight, ribeye area, backfat thickness, calculated yield grade, kidney-pelvic-heart fat percentage, and USDA yield grade or equivalent. The Canadian study site CBGA quality and yield grades were converted to USDA equivalents prior to analysis. Dressing percent was calculated.

finishing steers [2] = test: Feedlot growth performance study: component feeding vs continuous feeding of Zilmax; format: in vivo, cattle; details: for Final body weight: 20 days, LS mean
Text: A multi-center, randomized complete block design was used. Four study sites enrolled 800 to 1000 head of cattle each. Cattle were randomized to 10 blocks of 80 to 100 head based on body weight, then penned in groups of 16 to 20 head per pen. Finishing steers that were visually estimated to be approximately 58 days from finish were used in the studies. Each site enrolled 800 to 1000 head of cattle. Cattle were randomized to 10 blocks of 80 to 100 head and, within block, to treatment group based on body weight. Study pens consisted of 16 to 20 head per pen. The study was broken into three periods: acclimation, Zilmax® treatment and withdrawal. Between study sites, the number of acclimation days was variable but the Zilmax feeding period was 20 days at all study sites. The withdrawal period ranged from 3 to 5 days across the sites. More than one start time was allowed to accommodate enrollment of the study animals. If blocks were initiated at different times, blocks may have been acclimated for different lengths of time. The minimum length of the acclimation period was 31 days. All animals were permitted ad libitum feed consumption according to standard study site procedure. Feed delivery occurred twice daily. Daily feed issue was recorded on a per pen basis from the start of the acclimation period and until final weights were measured before shipment for harvest. Feed batching and delivery were documented. A component feeding method was tested in the studies by thoroughly mixing the daily zilpaterol dose in the first feeding of the Type C feed prior to delivery to the animal for Groups 2, 3 and 4. […] The daily component feed amount (i.e., the first feeding each day of the Type C feed) was set at approximately 10 lb of feed dry matter (DM) per head to simulate commercial practice for component feeding. Therefore, all study pens were fed approximately 10 lb of DM per head in the first feeding of the day. Control steers were fed the Type C feed that contained no Zilmax. The component feeding treatment groups were fed the Type C feed that contained 60, 75, or 90 mg/head/day. All cattle in the control and three component feeding treatments were fed the non-medicated Type C complete feed (i.e., without Zilmax®) in a second feeding each day. Steers in the 6.8 g/ton Zilmax® treatment group received the Type C complete feed containing this level of Zilmax® in both feedings each day during the 20-day Zilmax® feeding period. Individual animal weights were measured prior to the start of the Acclimation period for use in randomization of animals to treatment groups and pens. The Acclimation period was used to stabilize feed intake and behavioral aspects of the newly sorted pen groups of cattle prior to feeding Zilmax®. Individual weights were measured and unconsumed feed was removed from the feed bunks and weighed on the day of initiation of Zilmax® feeding. After a 20-day Zilmax® feeding period, unconsumed feed was removed from the feed bunks, weighed, and discarded. All animals in the five treatment groups were fed a non-medicated feed (i.e., without Zilmax®) for a minimum 3 day withdrawal period prior to harvest. Unconsumed feed remaining in the feed bunks was removed and weighed on the day of final body weight measurement. Cattle were handled throughout the study using procedures which were typical of commercial practices. Cattle were exposed to ambient weather conditions during the studies. Feed was not restricted prior to weighing or harvest. The primary variables in this study were average daily body weight gain (ADG) and feed efficiency (FE) calculated for the Zilmax® feeding period of the study (Day 0 through end of withdrawal period) and for the entire study (start of the acclimation period to end of withdrawal period). ADG was calculated as a pen average from the ADG of individual animals within the pen using the equation: ADG=(final body weight−Day 0 body weight)/(number of days between the body weight measurements). […]

[3] = Acclimation to End of Withdrawal (entire study)
[4] = Entire Study (55 to 82 days), component feeding 60 mg/hd/day
[5] = Entire Study (55 to 82 days), component feeding 75 mg/hd/day
[6] = Entire Study (55 to 82 days), component feeding 90 mg/hd/day
[7] = Entire Study (55 to 82 days), continuous 6.8 g/ton
[8] = Zilmax and Withdrawal Period, all treated groups
[9] = Zilmax and Withdrawal Periods (23 to 25 days), component feeding 60 mg/hd/day
[10] = Zilmax and Withdrawal Periods (23 to 25 days), component feeding 75 mg/hd/day
[11] = Zilmax and Withdrawal Periods (23 to 25 days), component feeding 90 mg/hd/day
[12] = Zilmax and Withdrawal Periods (23 to 25 days), continuous 6.8 g/ton

Compound: CC(C)NC1CCn2c(=O)[nH]c3cccc(c32)C1O (centres unmarked) [Zilmax, 4,5,6,7-tetrahydro-7-hydroxy-6-(isopropylamino) imidazo[4,5,1-jk]-[1]benzazepin-2(1H)-one]
- Backfat thickness, among the treatment groups (finishing steers [1]; P>0.19): no significant differences
- Kidney-pelvic-heart fat percentage, among the treatment groups (finishing steers [1]; P>0.19): no significant differences
- USDA quality grade, among the treatment groups (finishing steers [1]; P>0.19): no significant differences
- Calculated yield grade, Zilmax treated groups compared to the control group (finishing steers [1]; all treated groups): significantly lower
- Dressing percentage, Zilmax treated groups compared to the control group (finishing steers [1]; all treated groups): significantly higher
- Hot carcass weight, Zilmax treated groups compared to the control group (finishing steers [1]; all treated groups): significantly higher
- Marbling score, Zilmax treated groups compared to the control group (finishing steers [1]; all treated groups): significantly lower
- Rib eye area, Zilmax treated groups compared to the control group (finishing steers [1]; all treated groups): significantly higher
- USDA yield grade score, Zilmax treated groups compared to the control group (finishing steers [1]; all treated groups): significantly lower
- Calculated yield grade, component feeding groups vs continuous feeding group (finishing steers [1]; bovine, in vivo): no differences
- Dressing percentage, component feeding groups vs continuous feeding group (finishing steers [1]; bovine, in vivo): no differences
- Hot carcass weight, component feeding groups vs continuous feeding group (finishing steers [1]; bovine, in vivo): no differences
- Marbling score, component feeding groups vs continuous feeding group (finishing steers [1]; bovine, in vivo): no differences
- Rib eye area, component feeding groups vs continuous feeding group (finishing steers [1]; bovine, in vivo): no differences
- USDA yield grade score, component feeding groups vs continuous feeding group (finishing steers [1]; bovine, in vivo): no differences
- Backfat Thickness (finishing steers [1]; component feeding 60 mg/hd/day): 0.49 inches
- Calculated Yield Grade (finishing steers [1]; component feeding 60 mg/hd/day): 2.81*
- Dressing % (using final body weight shrunk 4%) (finishing steers [1]; component feeding 60 mg/hd/day): 63.89* %
- Hot Carcass Weight (finishing steers [1]; component feeding 60 mg/hd/day): 904* lb/head
- Kidney-Pelvic-Heart fat (finishing steers [1]; component feeding 60 mg/hd/day): 2.27%
- Ribeye Area (finishing steers [1]; component feeding 60 mg/hd/day): 15.14* sq. inches
- USDA Yield Grade (finishing steers [1]; component feeding 60 mg/hd/day): 2.19*
- Marbling Score (finishing steers [1]; component feeding 60 mg/hd/day): 453*
- Backfat Thickness (finishing steers [1]; component feeding 75 mg/hd/day): 0.48 inches
- Calculated Yield Grade (finishing steers [1]; component feeding 75 mg/hd/day): 2.82*
- Dressing % (using final body weight shrunk 4%) (finishing steers [1]; component feeding 75 mg/hd/day): 64.00* %
- Hot Carcass Weight (finishing steers [1]; component feeding 75 mg/hd/day): 902* lb/head
- Kidney-Pelvic-Heart fat (finishing steers [1]; component feeding 75 mg/hd/day): 2.26%
- Ribeye Area (finishing steers [1]; component feeding 75 mg/hd/day): 15.07* sq. inches
- USDA Yield Grade (finishing steers [1]; component feeding 75 mg/hd/day): 2.19*
- Marbling Score (finishing steers [1]; component feeding 75 mg/hd/day): 460*
- Backfat Thickness (finishing steers [1]; component feeding 90 mg/hd/day): 0.49 inches
- Calculated Yield Grade (finishing steers [1]; component feeding 90 mg/hd/day): 2.79*
- Dressing % (using final body weight shrunk 4%) (finishing steers [1]; component feeding 90 mg/hd/day): 64.06* %
- Hot Carcass Weight (finishing steers [1]; component feeding 90 mg/hd/day): 905* lb/head
- Kidney-Pelvic-Heart fat (finishing steers [1]; component feeding 90 mg/hd/day): 2.26%
- Ribeye Area (finishing steers [1]; component feeding 90 mg/hd/day): 15.20* sq. inches
- USDA Yield Grade (finishing steers [1]; component feeding 90 mg/hd/day): 2.18*
- Marbling Score (finishing steers [1]; component feeding 90 mg/hd/day): 456*
- Backfat Thickness (finishing steers [1]; continuous 6.8 g/ton): 0.49 inches
- Calculated Yield Grade (finishing steers [1]; continuous 6.8 g/ton): 2.83*
- Dressing % (using final body weight shrunk 4%) (finishing steers [1]; continuous 6.8 g/ton): 64.08* %
- Hot Carcass Weight (finishing steers [1]; continuous 6.8 g/ton): 908* lb/head
- Kidney-Pelvic-Heart fat (finishing steers [1]; continuous 6.8 g/ton): 2.27%
- Ribeye Area (finishing steers [1]; continuous 6.8 g/ton): 15.14* sq. inches
- USDA Yield Grade (finishing steers [1]; continuous 6.8 g/ton): 2.19*
- Marbling Score (finishing steers [1]; continuous 6.8 g/ton): 457*
- ADG, component feeding groups vs continuous feeding group (finishing steers [2]; [3]): No differences
- ADG, treated groups compared to the control group (finishing steers [2]; [3]): significantly higher
- FE, component feeding groups vs continuous feeding group (finishing steers [2]; [3]): No differences
- FE, treated groups compared to the control group (finishing steers [2]; [3]): significantly lower
- DMI, among the treatment groups (finishing steers [2]; Acclimation to End of Withdrawal (entire study), P>0.51): No differences
- ADG (finishing steers [2]; [4]): 4.14* lb/head/day
- DMI (finishing steers [2]; [4]): 22.71 lb/head/day
- FE (Feed / Gain) (finishing steers [2]; [4]): 5.64*
- ADG (finishing steers [2]; [5]): 4.12* lb/head/day
- DMI (finishing steers [2]; [5]): 22.75 lb/head/day
- FE (Feed / Gain) (finishing steers [2]; [5]): 5.65*
- ADG (finishing steers [2]; [6]): 4.13* lb/head/day
- DMI (finishing steers [2]; [6]): 22.65 lb/head/day
- FE (Feed / Gain) (finishing steers [2]; [6]): 5.62*
- ADG (finishing steers [2]; [7]): 4.19* lb/head/day
- DMI (finishing steers [2]; [7]): 22.93 lb/head/day
- FE (Feed / Gain) (finishing steers [2]; [7]): 5.64*
- ADG, component feeding groups vs continuous feeding group (finishing steers [2]; Zilmax and Withdrawal Period): No differences
- DMI, component feeding groups compared to the control group (finishing steers [2]; Zilmax and Withdrawal Period): significantly lower
- DMI, continuous feeding group vs control group (finishing steers [2]; Zilmax and Withdrawal Period): no significant difference
- FE, component feeding groups vs continuous feeding group (finishing steers [2]; Zilmax and Withdrawal Period): No differences
- ADG, treated groups compared to the control group (finishing steers [2]; [8]): significantly higher
- FE, treated groups compared to the control group (finishing steers [2]; [8]): significantly lower
- ADG (finishing steers [2]; [9]): 4.13*^(c) lb/head/day
- DMI (finishing steers [2]; [9]): 22.57* lb/head/day
- FE (Feed / Gain) (finishing steers [2]; [9]): 5.89*
- ADG (finishing steers [2]; [10]): 3.99* lb/head/day
- DMI (finishing steers [2]; [10]): 22.70* lb/head/day
- FE (Feed / Gain) (finishing steers [2]; [10]): 5.99*
- ADG (finishing steers [2]; [11]): 3.97* lb/head/day
- DMI (finishing steers [2]; [11]): 22.39* lb/head/day
- FE (Feed / Gain) (finishing steers [2]; [11]): 6.10*
- ADG (finishing steers [2]; [12]): 4.23* lb/head/day
- DMI (finishing steers [2]; [12]): 22.87 lb/head/day
- FE (Feed / Gain) (finishing steers [2]; [12]): 5.96*
- Final body weight (finishing steers [2]; component feeding 60 mg/hd/day): 1463 lb/head
- Final body weight (finishing steers [2]; component feeding 75 mg/hd/day): 1459 lb/head
- Final body weight (finishing steers [2]; component feeding 90 mg/hd/day): 1461 lb/head
- Final body weight (finishing steers [2]; fed continuously 6.8 g/ton (90% DMB)): 1467 lb/head
